Experimental findings from a melting point compilation (Tetko et al.; mined from patent text by program, amines drawn as free bases though some values may be those of a salt) are described below.

Molecules are shown by their SMILES.

Turning to `Cc1coc(C)c1N(C)c1cc(C(=O)N(C)C)cc2c1nc(C)n2C`, the melting point (as a rule, the temperature, or range, at which the solid turns liquid) lay in the range of 163 to 164 °C.
`CCCCS(=O)(=O)c1ccc(C(=O)Nc2ccc3cc(CN4CCCC4)cnc3c2C)cc1` returned a melting point of 210 °C.
Consider `CC(C)(C)CCC(=N)NC(=S)Nc1ccc(Cl)cc1`, for which the melting point lay in the range of 135 to 137 °C.
`Cc1cc(C#N)cc(C(=O)c2c(C(C)C)c(=O)[nH]c(=O)n2CC2(CC(=O)O)CC2)c1` came in with a melting point of 244 to 245 °C.
The compound `Cc1cc(S(=O)(=O)Nc2cccc3ccccc23)c2c(C)ccc(C(C)C)cc1-2` returned a melting point of 140 to 142 °C.
With `CC1(C)Oc2ccc(C#N)cc2C(C2=C(C(O)C(N)=O)C=CCC2)=C1O` (centres undefined) the figure was 235 to 237 °C; with `CNC(=O)C(Cc1c[nH]c2ccccc12)NC(=O)C(C)(CC(C)C)c1ccc(Cl)cc1S` (centres undefined), 75 to 78 °C.
Consider `Cc1ncc(-c2ccc3[nH]c4c(cc(-c5ccc(Cl)cc5Cl)c(=O)n4C)c3c2)o1`, for which the melting point lay within 338 to 340 °C.
On to `CC(C)(C)OC(=O)N[C@H](C(=O)Br)c1ccccc1`, for which the melting point lay in the range of 108 to 109 °C.
As for `CC(C)n1nc(-c2sc(Nc3cccnc3)nc2-c2ccccc2)ccc1=O`, the melting point lay within 226 to 228 °C.
`COc1cc(N)c(C(=O)c2ccnc(Cl)c2)cc1OC` had a melting point of 132 to 134 °C.
The compound `O=C(CCl)OCN1C(=O)CN(CCN2CC(=O)N(COC(=O)CCl)C(=O)C2)CC1=O` returned a melting point of 132 to 134 °C.
`Cc1c(C(=O)Nc2ccc(N3CCN(CCO)CC3)c(C#N)c2)cnn1C` returned a melting point of 228 to 230 °C.
Next, `CCCCc1nc2c(N)nc(C)c(C)c2n1CCCCNS(C)(=O)=O`: 130 °C; `COc1cccc(CC2CCN(C(=O)C(=O)Nc3ccc4[nH]c(=O)oc4c3)CC2)c1`: 110 to 115 °C; `CC(=O)c1ccc2c(c1)ncn2-c1cccc(-c2cnc(N)nc2)c1`: 275 to 278 °C.
Next, `CCCOc1ccc(OC)cc1-c1ncc(C(N)=O)c(=O)[nH]1`: 206 to 207 °C; `Cc1sc2ncc(C(O)CCCc3ccccc3)n2c1C` (centres undefined): 167 to 169 °C.
On to `O=c1[nH]c2cc(Cl)ccc2c(O)c1-c1cccc(Cc2ccccc2)c1`, for which the melting point is 304 to 306 °C.
Regarding `CC(C)(C)N(N)C(=O)c1ccccc1`, the melting point lay in the range of 124 to 125 °C.
Consider `Cc1ccc(S(=O)(=O)OC2CC(=O)N(Cc3ccccc3)C2)cc1` (centres undefined), for which the melting point lay within 83 to 84 °C.
Take `CC1(C)CC(=O)C(S(=O)(=O)Cc2ccccc2)=C(O)C1`: the melting point lay in the range of 87 to 89 °C.
Compound `O=c1ccc2ccc(OCCCN3CCN(c4ccccc4)CC3)cc2o1` had a melting point of 117 to 118 °C.
For `CN1C(=NCCCCn2ccnc2)c2cccc3cccc1c23`, the melting point lay in the range of 126 to 127 °C.
`O=C(c1ccc(Cl)cc1Cl)N1CCC(=NO)c2ccc(Cl)cc21` returned a melting point of 231 to 232 °C.
For the compound `CN1CCCC(C(=O)N2CCC(c3[nH]nc4c3C(=O)c3c(NC(=O)NN5CCOCC5)cccc3-4)CC2)C1` (centres undefined), the melting point was 158 to 160 °C.
As for `COc1nc(C)c([N+](=O)[O-])cc1C`, the melting point is 85.9 to 90.5 °C.
The compound `O=C(NC1CCCCC1)c1ccn2nc(-c3ccccc3)c(-c3cccc(Cl)c3)c2n1` showed a melting point of 160 to 161 °C.
Next, `O=C(CC1CCCCC1)Nc1ccc2oc3c(c2c1)CCCCC3`: 188 to 189 °C; `CC(C)Cn1cnc2c(N)nc3ccc(-n4cccc4)cc3c21`: 228 to 232 °C; `Cc1oc(-c2cccc(Br)c2)nc1CCO`: 92 to 93 °C.
With `CCN(CC)CCOC(=O)N1CCC(NC(=O)c2ccccc2)CC1` the figure was 78 to 82 °C; with `CC/C(=C\CCC(O)(CC)CC)c1cc(CCc2ccc(CO)c(CO)c2)cs1`, 85 to 86 °C; with `CON=C(C(C)=NN)c1ccccc1`, 132 °C.
`CCc1ccc(Oc2cnc[nH]c2=O)cc1`: the melting point lay within 144 to 146 °C.
Next, `Cc1csc(-c2ccc3c(c2)C=C(C(=O)Nc2ccc(CN(C)C4CCOCC4)cc2)CCO3)c1`: 147 to 148 °C; `COc1ccc(Oc2c(SCc3ccccc3)cc(C(=O)O)cc2S(N)(=O)=O)cc1`: 215 to 216 °C; `NC1=NC(N)(c2ccc(S(=O)(=O)NN3CCOCC3)cc2)NC=N1` (centres undefined): greater than 260 °C.
Next, `O=C(CC1(C=NO)OCCO1)OCc1ccccc1`: 52 °C; `CCCCc1nnc(SCc2ccc(Cl)cc2)n1Cc1ccc(OC(C(=O)O)c2ccccc2)cc1` (centres undefined): 66 to 67 °C; `CN1CCC2(CC1)NC(=O)N(c1ccc(C#N)c(C(F)(F)F)c1)C2=O`: 188 to 189 °C.
Next, `O=C1C=C2CN(C(C(=O)C3CC3)c3ccccc3Cl)CCC2S1` (centres undefined): 119 to 123 °C; `O=C1c2ccc3cccnc3c2N=CC1S(=O)(=O)CC(F)(F)F` (centres undefined): 272 to 274 °C; `O=C(NCc1cccs1)C12CC3CC(CC(O)(C3)C1)C2`: 140 to 141 °C.
In the case of `O=C(c1ccc(F)cc1)N1CCC[C@H](c2nc(-c3ccccc3)no2)C1`, the melting point fell in the range of 78 to 79 °C.
In turn, `CCCOc1ccccc1-c1nc(CO)c[nH]1` came in with a melting point of 90 to 92 °C.
On to `CC(C)c1nc(CO)n(CC(=O)c2ccccc2)c1Sc1cc(Cl)cc(Cl)c1`, for which the melting point was 205 to 211 °C.
In turn, `CN1C(C)(C)CC(OC(=O)NNC(=O)OC2CC(C)(C)N(C)C(C)(C)C2)CC1(C)C` returned a melting point of 189 to 191 °C.
For the compound `CC(=O)Oc1ccc(-c2cc3ccc(OC(C)=O)cc3s2)cc1`, the melting point lay within 208 to 210 °C.
As for `COC(=O)C(=O)c1cc(Cl)c(OCCOc2ccc3ccccc3c2)c(Cl)c1`, the melting point was in the range of 120 to 121 °C.
As to `Cn1ncnc1COc1nc2c(nnn2-c2ccccc2)c2ccccc12`, the melting point lay within 188 to 190 °C.
`O=C(O)c1ccc(Cn2c(=O)sc3ccc(C#CCc4ccccc4)cc3c2=O)cc1` had a melting point of 240 to 242 °C.
For `CCCCN1CC=C(c2cccc3[nH]ccc23)CC1`, the melting point amounted to 91 °C.
With `CC(=O)NC(C)Cc1cc2c(cc1CC(=O)O)OCO2` (centres undefined), the melting point lay within 195 to 197 °C.
Regarding `CCOC(=O)CNc1ccc(Cl)c(Cl)c1`, the melting point lay within 103 to 104 °C.
With `COc1cccc2c(=O)n3c(cc12)S(=O)(=O)CCC3` the figure was 251 to 252 °C.
With `COc1cc(OC)nc(NC(=O)NS(=O)(=O)c2ccccc2CCCl)n1` the figure was 169 to 171 °C.
With `CCNC(=O)c1cccc(C(F)(F)F)c1` the figure was 98 to 99 °C.
`Cc1nc(C)c(Cl)c(NCc2ccc(Oc3ccc4ncc([N+](=O)[O-])n4n3)c(Cl)n2)n1` returned a melting point of 184 to 186 °C.
With `NC(=O)[C@H]1CN(c2ccc(C3=CCOCC3)c(F)c2)C(=O)O1`, the melting point fell in the range of 164 to 169 °C.
Compound `C[C@H]1C[C@H](C(=O)O)c2cc(Cl)c(Cl)cc2O1` (relative stereo) returned a melting point of 108 to 110 °C.
Compound `Cc1cc(C)n(-c2nc(Nc3ccc(Cl)cc3)cc(N3CCOCC3)n2)n1` came in with a melting point of 186 to 187 °C.
`O=C1C(=O)c2ccccc2C2=C1SCC1(CCC(O)CC1)O2` (centres undefined) gave a melting point of 166 to 168 °C.
`Cn1ncc2c1CS(=O)(=O)c1cn[nH]c1-2`: the melting point is greater than 270 °C.
